# Measurements as given in patent US20080234244A1, “CU[…] AND USES THEREOF” (priority 2007, published 2008).
# Columns and labels:
# [1] = tested on: K562 cells; assay: Flow cytometry for cell cycle analysis (PI); type: cell-based, human; conditions: 80 nM, 48 hours, K562, serum starved 24 hours
# Procedure: K562 cells were serum starved for 24 hours prior to cucurbitacin B treatment. After 48 hours of treatment, the cells were collected and rinsed twice with phosphate-buffer saline and fixed with 80% ice-cold ethanol for 1 hour at 4° C. overnight.
# Then, the cells were stained with propidium iodine at 1 mg/ml for 15 minutes at room temperature. The stained cells were analyzed by flow cytometry (FACS Calibur BD Flow Cytometer)
# Appropriate numbers of cell density were serum starved for 24 hours prior to treatment with different doses of cucurbitacin B for 2 days. The cell cycle analysis profile of K562 cells after cucurbitacin B treatment were detected using Flow Cytometry analysis after fixed with 80% ice-cold ethanol at 4° C. and then stained with PI for 15 minutes.
# [2] = tested on: Mek1/2 activation in K562 cells; assay: Western blot of phosphorylated and total Mek1/2; type: cell-based, human; conditions: 50 μM, 5 minutes treatment
# Procedure: (§1) K562 leukemia cells were serum starved for 18 hours prior to cucurbitacin B treatment. The cells were incubated at a 75-mm culture flask filled with 10 ml growth medium (RPMI with 10% FBS and 1% PS) at the cell density of 1×10^5 cells/ml in the presence or absence of cucurbitacin B for various time intervals. The drug treatment were terminated by centrifugation at 1500 rpm for 5 minutes and the cells were rinsed twice with phosphate-buffered saline and lysed at 4° C. in a lysis buffer containing 50 mM Tris-HCl, pH7.5, […], 5 mM EDTA, 40 mM NaP2O7, 1% Triton X-100, 1 mM dithiothreitol, […], 100 μM phenylmethylsulfonyl fluoride, 2 μg/ml leupeptin, 4 μg/ml aprotinin and 0.7 μg/ml pepstatin. The insoluble protein lysate were removed by centrifugation for 10 minutes at 13000 rpm. Fifteen micrograms of protein lysate was resolved using SDS-polyacryamide gel electrophoresis (PAGE) (usually 8%-12% polyacrylamide gel) and then subjected to western blot analysis. Western blots were performed with antibodies specific for phosphorylated and total Stat3, c-Raf, Mek, and Erk. […]
# (§2) In order to further investigate if cucurbitacin B block the Stat3 activation is truly through Erk pathway in K562 cells, the ability of cucurbitacin B to inhibit the Ras/Raf/Mek/Erk pathway was determined by measuring Ras-GTP, phosphorylation of c-Raf, Mek1/2, Erk1/2 and Elk-1 in K562 cells. […]
# [3] = tested on: K562 cells; assay: Flow cytometry for apoptosis analysis (Annexin V / PI); type: cell-based, human; conditions: 80 nM, 48 hours, K562, Anx.V/PI
# Procedure: (§3) 10^5/ml K562 cells were treated with cucurbitacin B in the presence of complete medium containing 10% FBS for 48 hours. The changes in cell morphology were visualized using Leica DMIL (Leica Microsystem). Cells were harvested and rinsed twice with ice-cold PBS (pH7.4) and a total 2.5×10^5 K562 cells were stained with 10 μl Annexin V and 10 μl propidium iodide in 100 μl 1× binding buffer for 15 minutes in dark and then subjected to apoptosis analysis with FACSCalibar Flow cytometer system (FACS Calibur BD Flow Cytometer).
# Appropriate number of cell density were seeded into T-25 culture flask and treated with different doses of cucurbitacin B for 2 days. The apoptotic effects of cucurbitacin B on the cells were detected using Flow Cytometry analysis after stained with Anx.V and PI for 15 minutes. […] Cucuribitacin B induced apoptosis in a dose dependent manner, among them, 80 nM induced the highest apoptotic effect in K562 cells, with over 50% cells in apoptotic population and 10% cells in the necrotic population (late apoptotic and necrotic phase). The effect of cucurbitacin B on apoptosis and cell cycle profile in K562 cells were analyzed using flow cytometry, as depicted in FIG. 3.
# [4] = tested on: Raf/Mek/Erk pathway in K562 cells; assay: Western blot, Raf/Mek/Erk pathway as a whole; type: cell-based, human; conditions: 50 μM, after 4 hours of treatment
# Procedure: as §1, §2
# [5] = tested on: Ras-GTP activation in K562 cells; assay: GTPase pull-down assay (GST-Raf1-RBD), Ras-GTP content; type: cell-based, human; conditions: 50 μM, 2 minutes to 4 hours
# Procedure: Lysate with 500 μg protein were used to determined the Ras-GTP content by the Glutathione S-transferase (GST)-RBD (Ras-binding domain of Raf) pull down assay. The treated and control cells were lysed in lysis buffer (25 mMTris-HCl, pH7.5, 150 mM NaCl, 5 mMMgCl2, 1% NP-40, 1 mM DTT and 5% glycerol) for 5 minutes at 4° C. Soluble cell lysates were obtained by centrifuged at 17000 g for 5 minutes. 500 μg cell lysate were collected and incubated with 80 μg GST-Raf1-RBD in 50 mM Tris-HCl, pH7.2, 150 mMNaCl, 0.5% Triton X-100, 5 mMMgCl2, 1 mMDTT and 10% glycerol for 1 hour at 4° C. The beads were washed with lysis buffer for 3 times and then resuspended and boiled in 2× sample buffer at 100° C. for 5 minutes. 25 μl supernatants were collected by centrifuged at 7200 g for 2 minutes and then resolved in 15% SDS-PAGE followed by western blot analysis using anti-Ras antibody.
# In order to further investigate if cucurbitacin B block the Stat3 activation is truly through Erk pathway in K562 cells, the ability of cucurbitacin B to inhibit the Ras/Raf/Mek/Erk pathway was determined by measuring Ras-GTP, phosphorylation of c-Raf, Mek1/2, Erk1/2 and Elk-1 in K562 cells. The cells were incubated with 50 μM cucurbitacin B for the indicated time intervals (2 minutes, 5 minutes, 10 minutes, 30 minutes, 1 hour and 4 hours). […]
# [6] = tested on: Stat3 activation in K562 cells; assay: Western blot of phosphorylated and total Stat3; type: cell-based, human; conditions: 50 μM
# Procedure: K562 leukemia cells were serum starved for 18 hours prior to cucurbitacin B treatment. The cells were incubated at a 75-mm culture flask filled with 10 ml growth medium (RPMI with 10% FBS and 1% PS) at the cell density of 1×10^5 cells/ml in the presence or absence of cucurbitacin B for various time intervals. The drug treatment were terminated by centrifugation at 1500 rpm for 5 minutes and the cells were rinsed twice with phosphate-buffered saline and lysed at 4° C. in a lysis buffer containing 50 mM Tris-HCl, pH7.5, […], 5 mM EDTA, 40 mM NaP2O7, 1% Triton X-100, 1 mM dithiothreitol, […], 100 μM phenylmethylsulfonyl fluoride, 2 μg/ml leupeptin, 4 μg/ml aprotinin and 0.7 μg/ml pepstatin. The insoluble protein lysate were removed by centrifugation for 10 minutes at 13000 rpm. Fifteen micrograms of protein lysate was resolved using SDS-polyacryamide gel electrophoresis (PAGE) (usually 8%-12% polyacrylamide gel) and then subjected to western blot analysis. Western blots were performed with antibodies specific for phosphorylated and total Stat3, c-Raf, Mek, and Erk. The blots were developed with the Enhanced Chemiluminescence Plus (ECL Plus) detection system (Amersham).
# 15 μg cell lysate of each sample was separated in 8% SDS-PAGE followed by immuno-blotting with anti-Stat3 antibodies to detect the phosphorylated form of Stat3 as well as its total expression level.
# Cells were serum starved for 18 hours followed by treated with 50 μM cucurbitacin B for 10 minutes, 30 minutes, 1 hour and 4 hours, respectively. 15 μg cell lysate of each sample was separated in 8% SDS-PAGE followed by immuno-blotting with anti-Stat3 antibodies to detect the phosphorylated form of Stat3 as well as its total expression level.
# [7] = tested on: c-Raf activation in K562 cells; assay: Western blot of phosphorylated and total c-Raf; type: cell-based, human; conditions: 50 μM, 5 minutes treatment
# Procedure: as §1, §2
# [8] = tested on: Elk-1 activation in K562 cells; assay: Phosphorylation of Elk-1; type: cell-based, human; conditions: 50 μM, 5 minutes treatment
# Procedure: In order to further investigate if cucurbitacin B block the Stat3 activation is truly through Erk pathway in K562 cells, the ability of cucurbitacin B to inhibit the Ras/Raf/Mek/Erk pathway was determined by measuring Ras-GTP, phosphorylation of c-Raf, Mek1/2, Erk1/2 and Elk-1 in K562 cells. The cells were incubated with 50 μM cucurbitacin B for the indicated time intervals (2 minutes, 5 minutes, 10 minutes, 30 minutes, 1 hour and 4 hours). 15 μg cell lysates were subjected to western blot analysis for phosphorylation and total c-Raf, Mek1/2, Erk1/2.
# [9] = tested on: Erk1/2 activation in K562 cells; assay: Western blot of phosphorylated and total Erk1/2; type: cell-based, human; conditions: 50 μM, 5 minutes treatment
# Procedure: as §1, §2
# [10] = tested on: Human leukemia cell lines CCRF-CEM, K562, MOLT-4, RPMI-8226 and SR; assay: Cell proliferation assay using SRB, 5 human leukemia cell lines; type: cell-based; conditions: 48 hours treatment, range over the 5 cell lines, read-out: GI50 (growth inhibition), all leukemia cell lines
# Procedure: (§4) Human leukemia cell lines CCRF-CEM, K562, MOLT-4, RPMI-8226 and SR, purchased from the National Cancer Institute (NCI), were cultured in RPMI 1640 medium supplemented with 5% (v/v) fetal […] and 100 units/ml penicillin and 100 units/ml streptomycin in a humidified 5% CO2 atmosphere at 37° C.
# (§5) All 5 human leukemia cells were screened by the cell proliferation assay using SRB to quantitative cell protein mass following cucurbitacin B treatment. The experiments were repeated in triplicate. Appropriate number of cells (depends on the doubling time of cells) were seeded into a 96-well tissue culture plate and growth in the indicated medium in presence of different dosages of cucurbitacin B for 2 days. Afterwards 25 μl 80% TCA reagent was added into each well to fix the cells and the plates were incubated at 4° C. at least for 1 hour. Then the plates were washed with tap water and air dried. […] The plates were air dried and dissolved by 100 μl 10 mM Trizma-base solution and the absorbance was measured at 515 nm using FLUOstar OPTIMA equipment.
# (§6) Appropriate number of cell density were seeded into a 96 well culture plate and treated with different doses of cucurbitacin B for 2 days. The growth inhibition effects of cucurbitacin B on the cells were detected using SRB.
# [11] = tested on: K562; assay: Cell proliferation assay using SRB, K562; type: cell-based; conditions: Homo sapiens, K562, 48 hours treatment, read-out: GI50 (growth inhibition)
# Procedure: as §4, §5, §6
# [12] = tested on: K562 cells; assay: Cell morphology by microscopy (Leica DMIL, 400x); type: cell-based, human; conditions: 48 hours
# Procedure: as §3
# After 48 hours of cucurbitacin B treatment, the cells were viewed using a Leica DMIL microscope at 400× magnification. […] However, the treated cells lost the rounded shape and shrank in size at the highest dose of cucurbitacin B used (80 nM).
smiles,measurement,setting,value
CC(=O)OC(C)(C)/C=C/C(=O)[C@](C)(O)C1[C@H](O)C[C@@]2(C)C3CC=C4C(C[C@H](O)C(=O)C4(C)C)[C@]3(C)C(=O)C[C@]12C (some centres unmarked) [cucurbitacin B],percentage of cells in the G2/M phase,[1],70%
same,inhibition of activation of Mek1/2,[2],significantly inhibited
same,cells in apoptotic population,[3],over 50%
same,cells in the necrotic population (late apoptotic and necrotic phase),[3],10%
same,inhibition of the Raf/Mek/Erk pathway,[4],Complete inhibition
same,change of Ras-GTP activation,[5],no significant change
same,time of peak inhibition of Stat3 activation,[6],4 h
same,"inhibition of Stat3 activation, time course",[6]; 10 minutes to 30 minutes,No significant change
same,"inhibition of Stat3 activation, time course",[6]; 1 hour treatment,inhibited Stat3 activation
same,inhibition of Stat3 activation (phospho-Stat3),"[6]; 4 hours, only the highest of 1, 5, 50 μM",significant inhibited
same,inhibition of activation of c-Raf,[7],significantly inhibited
same,inhibition of activation of Elk-1,[8],significantly inhibited
same,inhibition of activation of Erk1/2,[9],significantly inhibited
same,GI50,[10],15.6 to 35.3 nM
same,GI50,[11],15.6 nM
same,change in cell morphology,[12]; 20 nM and 40 nM,increase in cell size
same,change in cell morphology,[12]; 80 nM,shrinkage of cell size
